Reference: PubChem BioAssay AID2305 (GlaxoSmithKline (GSK), 2010)
“And” between values parts separate entries of the source, which are not always exact repeats. Equal values may be shown once.

System: P. falciparum 3D7 growth, pLDH absorbance
Test: P. falciparum 3D7 growth inhibition, dose response, strain 3D7 (AID 2305)

SMILES	IC50
CN(C)CC(=O)Nc1cccc(Nc2nccc(NCC(O)c3ccccc3)n2)c1 (stereo unspecified)	980 nM
Cc1ccc2c(-c3ccc([N+](=O)[O-])o3)cc(C)nc2c1	40 nM
N#Cc1ccc2c(c1)CCN(CCC1CCC(NC(=O)/C=C/c3cccc4cc[nH]c34)CC1)CC2 (stereo unspecified)	1090 nM
COc1ccc(NC(=O)Nc2ccc(-c3ccccc3)cc2)cc1Cn1cnc(N2CCCNCC2)cc1=O	760 nM
CC(C)COc1cc(C(=O)Nc2cnc3ccccc3c2)ccc1[N+](=O)[O-]	780 nM
CC(C)(C)c1cc(CN2CCN(Cc3ccccc3)CC2)cc(C(C)(C)C)c1O	770 nM
Cc1cc(O)c2c3c1C(=O)C=C1C3c3c(c(O)cc(O)c3C(=O)C1(C)C)C2=O (stereo unspecified)	1680 nM
O=C(C=Cc1ccc(F)c(Br)c1)N1CCC(CN2CCC(c3c[nH]c4ccccc34)CC2)CC1	750 nM
COc1ccc2ncc(F)c(CCN3CCC(CNCc4cccc5c4OCO5)CC3)c2n1	930 nM
COc1ccc2nccc([C@@H](O)CN3CCC(NCCOc4c(C)cccc4F)CC3)c2c1	350 nM
Cc1ccc(CNC(=O)[C@H](CC(C)C)Nc2cc(C)nc(Nc3ccccc3)n2)cc1	1770 nM
Oc1ccccc1CN1CCC2(CCCN(Cc3ccccc3F)C2)C1 (stereo unspecified)	680 nM
Cc1cc(N)c2cc(NC(=O)/C=C/c3ccc([N+](=O)[O-])cc3)ccc2n1	670 nM
c1cc(CNCCc2ccncc2)cc(-c2csc(-c3nc4ccccc4[nH]3)c2)c1	260 nM
CCCCCCCc1c(C)[nH]c2ccccc2c1=O	210 nM
COc1cccc(-c2cnc(N)c(-c3nc4cc(Cl)c(F)cc4[nH]3)c2)c1	540 nM
COc1ccc2nccc([C@@H](O)CN3CCC(NCCOc4ccc(F)cc4Cl)CC3)c2c1	280 nM
COc1ccc2nc(C)cc(N/N=C/C=C/c3ccccc3)c2c1	700 nM
CC[C@H](C)CNC(=O)c1cncc(-c2cccc(CNCCCc3ccccc3)c2)c1	1170 nM
COc1ccc(-c2cc(C(=O)N[C@@H](Cc3ccccc3)C(=O)NCCN3CCCCC3)ccc2O)cc1	790 nM
Cc1cc(CN2CCCC(OC(c3ccc(F)cc3)c3ccc(F)cc3)C2)ccc1O (stereo unspecified)	880 nM
CN(C)C(=O)c1ccc(CN(Cc2ccc(OC(C)(C)C)cc2)Cc2ccc3c(c2)OCCO3)cc1	830 nM
COc1ccc(Nc2nccc(-c3cccc(NC(=O)c4cc5cc(F)ccc5[nH]4)c3)n2)cc1	1030 nM
CNC(=O)c1ccc2nc(C3CC3)n(CC3CCN(S(=O)(=O)c4cccc(Cl)c4)CC3)c2c1	650 nM

SMILES	IC50
COC(=O)c1cccc(CNCc2cccc(-c3ccc(-c4nc5ccccc5[nH]4)cc3)c2)c1	350 nM
COc1ccc(CN2CCC(CNCCc3ccccc3Oc3ccccc3)CC2)cc1	1100 nM
CCc1ccc(S(=O)(=O)Nc2ccc(CCN(C)C3CCN(C)CC3)cc2)cc1	1060 nM
COc1cc(CC2c3cc(O)c(Cl)cc3CCN2C)c(OC)cc1C (stereo unspecified)	710 nM
COc1ccc2nccc(N3CCCN(CCNCc4ccc5c(n4)NC(=O)CS5)CC3)c2n1	150 nM
CCCNC(=O)c1cncc(-c2ccc(CNCCCc3ccccc3)cc2)c1	690 nM
CCOc1ccc(N2CCN(CCCCNC(=O)c3ccc(NC(=O)c4ccc(Cl)cc4)cc3)CC2)c(OCC)c1	570 nM
CCNC(=NCc1ccccc1)NCCCCCCNC(=NCc1ccccc1)NCC	700 nM
NC(N)=NN=CC(=O)Nc1ccc(C(F)(F)F)cc1	930 nM
O=C(/C=C/c1c(Cl)cccc1Cl)NC1CCC(CN2CCC(c3c[nH]c4ccccc34)CC2)CC1 (stereo unspecified)	370 nM and 810 nM
NC1CCN(c2nc(NCCc3ccc(O)cc3)nc(NCc3ccccc3-c3ccc(C(F)(F)F)cc3)n2)CC1	750 nM
CC(C)c1ccc(-c2nc3ncc(Cl)cc3[nH]2)cc1	860 nM
Cn1nc(-c2ccc(S(=O)(=O)N3CCC(CCN4CCC(c5c[nH]c6ccccc56)CC4)CC3)s2)cc1C(F)(F)F	810 nM
O=C(Nc1cccc(-c2nn3ncccc3c2-c2ccnc(Nc3ccc(N4CCOCC4)cc3)n2)c1)c1c(F)cccc1F	160 nM
CCOc1cc(C(=O)N[C@@H](Cc2ccccc2)[C@H](O)CNCc2cccc(OC)c2)cc(N2CCCCS2(=O)=O)c1	720 nM
COc1ccc2nc(C)cc(Nc3ccc(N4CCN(C)CC4)cc3)c2c1	790 nM
C=CCNC(=O)CCCN=C(N)N	720 nM
Fc1cccc(COc2ccc(Nc3ncnc4cc(/C=C/[C@@H]5CCCN5)sc34)cc2Cl)c1	590 nM
CN(C)c1ccc2c(c1)Sc1cc(N(C)C)ccc1N2C(=O)c1cccc(C(=O)O)c1	180 nM
COc1cc(C)nc2ccc(NC(=O)Nc3ccc([N+](=O)[O-])cc3C)cc12	600 nM
O=C(c1csc(-c2cccnc2)n1)N1CCc2cc3nccc(N4CCN5CCC[C@H]5C4)c3cc21	700 nM
Cn1cnc(-c2ccc3c(c2)CCN(CCC2CCC(NC(=O)/C=C/c4ccc(F)cc4)CC2)CC3)c1 (stereo unspecified)	900 nM
Cc1ccc(NC(=O)Nc2ccc(Cl)cc2)cc1-c1cccc(C(=O)Nc2ccc(F)cc2)c1	740 nM
CC(=O)Nc1nc(C(=O)Nc2ccc(-c3ccc(-c4nc5ccccc5[nH]4)cc3)cc2)cs1	150 nM

SMILES	IC50
CS(=O)(=O)N1CC2(CCN(CCC(NC(=O)NCc3ccccc3Cl)c3ccc(Cl)c(Cl)c3)CC2)c2ccccc21 (stereo unspecified)	1110 nM
Cc1cccc2[nH]c(-c3cccc(-c4cccc(NC(=O)c5cncn5C)c4)c3)nc12	170 nM
Cc1cc(N[C@@H](CC(C)C)C(=O)NC2CCCC2)nc(NCC2CCCCC2)n1	860 nM
O=C(Nc1ccc([N+](=O)[O-])cc1)Nc1nc2ccc(Cl)cc2s1	840 nM
COc1cc(Nc2nccc(N3CCC(NC(=O)Nc4cccc(C(C)=O)c4)C3)n2)cc(OC)c1OC (stereo unspecified)	970 nM
COc1ccc(NC(=O)[C@H](Cc2ccccc2)Nc2cc(C)nc(NCCc3ccc(F)cc3)n2)cc1	1120 nM
CCOc1ccccc1C(=O)N1CCc2cc3nccc(N4CCN5CCC[C@H]5C4)c3cc21	750 nM
Oc1ccc(CCNc2nc(NCc3ccc4cc(Cl)ccc4c3)nc(N3CCNCC3)n2)cc1	1020 nM
Cc1ccc(Nc2nccc(NCC(O)c3cccc(F)c3)n2)cc1 (stereo unspecified)	670 nM
CN(C)CCN(Cc1ccccc1-c1ccc(CNCCc2ccccc2)cc1)C(=O)c1ccccc1	1700 nM
CCOC(=O)C1=C(C)NC2=C(C(=O)CC(C)(C)C2)C1c1ccc(Br)cc1 (stereo unspecified)	1160 nM
CCCn1cc2c(ccc3nc(N)nc(N)c32)n1	80 nM
Cc1ccc(-c2ccc(NC(=O)N3CCc4cc(Br)c(N5CCN(C)CC5)cc43)cc2)cn1	1350 nM
COc1ccc(CNC2CCN(C)CC2)cc1-c1ccc(S(=O)(=O)NC2CCC2)c(C)c1	990 nM
Cc1sc2ncnc(Sc3nnc(N)s3)c2c1C	400 nM
Cc1cccc(CC2CC(=O)N(c3ccc([N+](=O)[O-])cc3)C2=O)c1 (stereo unspecified)	200 nM
CC(=O)Nc1ccc(S(=O)(=O)Nc2c(C)cc(Cc3cnc(N)nc3N)cc2C)cc1	1000 nM
CCCc1ccccc1Nc1nc(C)cc(N(CC)CCCN2CCCCC2)n1	620 nM
CC(C)CCCC(C)(C)NC[C@@H](O)[C@H](Cc1ccccc1)NC(=O)c1cc(NC(C)C)cc(N2CCCCS2(=O)=O)c1F	220 nM
O=C(/C=C/c1ccc([N+](=O)[O-])cc1)N1CCC(NS(=O)(=O)c2cccc(C(F)(F)F)c2)CC1	850 nM
OC[C@H]1CCCN1CC#Cc1cc2c(Nc3ccc(OCc4cccc(F)c4)c(Cl)c3)ncnc2s1	1210 nM
CCOc1cc(N)c2nc3ccc([N+](=O)[O-])cc3cc2c1	150 nM
CN(C)CCNC(=O)c1ccc(-c2ccc3c(Nc4ccccc4)c(C(N)=O)cnc3c2)cc1	730 nM
